Data reported in ChEMBL document CHEMBL5620345, “Metal binding pharmacophore click-derived discovery of new broad-spectrum metallo-β-lactamase inhibitors” (Eur J Med Chem, 2023).

Experiments:
[1] = Inhibition of recombinant NDM1 (unknown origin) expressed in Escherichia coli (DE3) cells using FC5 as substrate by microplate reader assay
[2] = Inhibition of recombinant his tagged VIM-2 (unknown origin) expressed in Escherichia coli (DE3) cells using FC5 as substrate by microplate reader assay
[3] = tested on: Escherichia coli; experiment: Antibacterial activity against Escherichia coli BAA2452 expressing blaNDM-1 clinical isolates assessed as meropenem MIC incubated for 16 to 18 hrs by broth microdilution method; assay type: functional; settings: time 16-18 hrs; further: test concentration or dose not given here
[4] = Inhibition of recombinant VIM-1 (unknown origin) expressed in Escherichia coli (DE3) cells using FC5 as substrate by microplate reader assay
[5] = tested on: Escherichia coli; experiment: Antibacterial activity against Escherichia coli C1580 expressing blaIMP-1 clinical isolates assessed as meropenem MIC incubated for 16 to 18 hrs by broth microdilution method; assay type: functional; settings: time 16-18 hrs; further: test concentration or dose not given here
[6] = Inhibition of recombinant his tagged IMP1 (unknown origin) expressed in Escherichia coli (DE3) cells using FC5 as substrate by microplate reader assay
[7] = Inhibition of recombinant VIM-5 (unknown origin) expressed in Escherichia coli (DE3) cells using FC5 as substrate by microplate reader assay
[8] = tested on: Escherichia coli; experiment: Antibacterial activity against Escherichia coli C1580 expressing blaIMP-1 clinical isolates assessed as fold potentiation incubated for 16 to 18 hrs by broth microdilution method; assay type: functional; settings: time 16-18 hrs; further: test concentration or dose not given here
[9] = tested on: Klebsiella pneumoniae; experiment: Antibacterial activity against Klebsiella pneumoniae BAA2470 expressing blaNDM-1 clinical isolates assessed as meropenem MIC incubated for 16 to 18 hrs by broth microdilution method; assay type: functional; settings: time 16-18 hrs; further: test concentration or dose not given here
[10] = tested on: Escherichia coli; experiment: Antibacterial activity against Escherichia coli C1541 expressing blaVIM-2 clinical isolates assessed as fold potentiation incubated for 16 to 18 hrs by broth microdilution method; assay type: functional; settings: time 16-18 hrs; further: test concentration or dose not given here
[11] = tested on: Enterobacterales; experiment: Antibacterial activity against Carbapenem-Resistant Enterobacterales 19 expressing blaNDM-1 clinical isolates assessed as fold potentiation incubated for 16 to 18 hrs by broth microdilution method; assay type: functional; settings: time 16-18 hrs; further: test concentration or dose not given here
[12] = tested on: Klebsiella pneumoniae; experiment: Antibacterial activity against Klebsiella pneumoniae BAA2470 expressing blaNDM-1 clinical isolates assessed as fold potentiation incubated for 16 to 18 hrs by broth microdilution method; assay type: functional; settings: time 16-18 hrs; further: test concentration or dose not given here
[13] = tested on: Escherichia coli; experiment: Antibacterial activity against Escherichia coli C1541 expressing blaVIM-2 clinical isolates assessed as meropenem MIC incubated for 16 to 18 hrs by broth microdilution method; assay type: functional; settings: time 16-18 hrs; further: test concentration or dose not given here
[14] = tested on: Enterobacterales; experiment: Antibacterial activity against Carbapenem-Resistant Enterobacterales 19 expressing blaNDM-1 clinical isolates assessed as meropenem MIC incubated for 16 to 18 hrs by broth microdilution method; assay type: functional; settings: time 16-18 hrs; further: test concentration or dose not given here
[15] = tested on: Escherichia coli; experiment: Antibacterial activity against Escherichia coli BAA2452 expressing blaNDM-1 clinical isolates assessed as fold potentiation incubated for 16 to 18 hrs by broth microdilution method; assay type: functional; settings: time 16-18 hrs; further: test concentration or dose not given here

Row | SMILES | IC50 [1] | IC50 [2] | MIC [3] | IC50 [4] | MIC [5] | IC50 [6] | IC50 [7] | fold change (FC) [8] | MIC [9] | fold change (FC) [10] | fold change (FC) [11] | fold change (FC) [12] | MIC [13] | MIC [14] | fold change (FC) [15]
1 | CCCc1ccc(C(c2cccc(-n3cc(-c4cccc(N)c4)nn3)c2)P(=O)(O)O)cc1 (stereo not given) | 460 nM | 14 nM | 16 µg/mL | 530 nM | 2 µg/mL | 190 nM | 0.56 nM | 16 | 64 µg/mL | 8 | 8 | >2 | 2 µg/mL | 8 µg/mL | 8
2 | Cc1ccc(C(c2cccc(-n3cc(-c4cccc(N)c4)nn3)c2)P(=O)(O)O)cc1 (stereo not given) | 1070 nM | 0.82 nM | 8 µg/mL | 620 nM | 1 µg/mL | 27 nM | 1 nM | 32 | 64 µg/mL | 16 | 8 | >2 | 1 µg/mL | 8 µg/mL | 16
3 | CC(C)(C)c1ccc(C(c2cccc(-n3cc(-c4cccc(N)c4)nn3)c2)P(=O)(O)O)cc1 (stereo not given) | 180 nM | 9 nM | 16 µg/mL | 710 nM | 2 µg/mL | 1370 nM | 1 nM | 16 | 64 µg/mL | 8 | 8 | >2 | 2 µg/mL | 8 µg/mL | 8
4 | CCc1ccc(C(c2cccc(-n3cc(-c4cccc(N)c4)nn3)c2)P(=O)(O)O)cc1 (stereo not given) | 650 nM | 6 nM | 8 µg/mL | 1370 nM | 4 µg/mL | 170 nM | 7 nM | 8 | 64 µg/mL | 16 | 8 | >2 | 1 µg/mL | 8 µg/mL | 16
5 | Nc1cccc(-c2cn(-c3cccc(C(c4ccc(-c5ccccc5)cc4)P(=O)(O)O)c3)nn2)c1 (stereo not given) | 180 nM | 0.43 nM | 16 µg/mL | 350 nM | 2 µg/mL | 150 nM | 2 nM | 16 | 64 µg/mL | 8 | 8 | >2 | 2 µg/mL | 8 µg/mL | 8
6 | Nc1cccc(-c2cn(-c3cccc(C(c4ccc(-c5ccc(Br)cc5)cc4)P(=O)(O)O)c3)nn2)c1 (stereo not given) | 4900 nM | 8 nM | 8 µg/mL | 1710 nM | 1 µg/mL | 12000 nM | 2 nM | 32 | 64 µg/mL | 8 | 8 | >2 | 2 µg/mL | 8 µg/mL | 16
7 | CSc1ccc(C(c2cccc(-n3cc(-c4cccc(N)c4)nn3)c2)P(=O)(O)O)cc1 (stereo not given) | 500 nM | 1 nM | 16 µg/mL | 640 nM | 2 µg/mL | 110 nM | 0.12 nM | 16 | 64 µg/mL | 16 | 8 | >2 | 1 µg/mL | 8 µg/mL | 8
8 | Nc1cccc(-c2cn(-c3cccc(C(c4cccc5ccccc45)P(=O)(O)O)c3)nn2)c1 (stereo not given) | 920 nM | 6 nM | 16 µg/mL | 130 nM | 0.5 µg/mL | 37 nM | 0.29 nM | 64 | 64 µg/mL | 16 | 16 | >2 | 1 µg/mL | 4 µg/mL | 8
9 | CCCCc1ccc(C(c2cccc(-n3cc(-c4cccc(N)c4)nn3)c2)P(=O)(O)O)cc1 (stereo not given) | 150 nM | 15 nM | 8 µg/mL | 460 nM | 1 µg/mL | 295 nM | 1 nM | 32 | 64 µg/mL | 8 | 8 | >2 | 2 µg/mL | 8 µg/mL | 16
